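Following 48 hours of exposure in 96-well plates, responses at five concentrations were used to interpolate endpoints linearly. GI50: concentration for 50% inhibition of growth. TGI is the concentration that stops growth completely.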
Tests used:
Experiment in all cases: DTP human tumour cell line panel, 48 h
[1] = system: T-47D breast
[2] = system: HOP-62 NSCLC
[3] = system: MDA-MB-231 breast
[4] = system: RXF 393 renal
[5] = system: ACHN renal
[6] = system: MCF7 breast
[7] = system: SR leukemia
[8] = system: A549 NSCLC
[9] = system: KM12 colon
[10] = system: HCT-116 colon
[11] = system: CAKI-1 renal
[12] = system: SNB-19 CNS
[13] = system: OVCAR-4 ovarian
[14] = system: NCI-H226 lung
[15] = system: HCT-15 colon
[16] = system: NCI-H522 lung
[17] = system: SN12C renal
[18] = system: UACC-257 melanoma
[19] = system: HS 578T breast
[20] = system: UO-31 renal
[21] = system: SK-OV-3 ovarian
[22] = system: OVCAR-3 ovarian
[23] = system: BT-549 breast
[24] = system: OVCAR-8 ovarian
[25] = system: HL-60(TB) leukemia
[26] = system: U251 CNS
[27] = system: SNB-75 CNS
[28] = system: SF-295 CNS
[29] = system: 786-0 renal
[30] = system: PC-3 prostate
[31] = system: LOX IMVI melanoma
[32] = system: MDA-MB-435
[33] = system: MALME-3M melanoma
[34] = system: A498 renal
[35] = system: COLO 205 colon
[36] = system: OVCAR-5 ovarian
[37] = system: SF-539 CNS
[38] = system: TK-10 renal
[39] = system: M14 melanoma
[40] = system: HOP-92 NSCLC
[41] = system: IGROV1 ovarian
[42] = system: SK-MEL-2 melanoma
[43] = system: SK-MEL-28 melanoma
[44] = system: EKVX NSCLC
[45] = system: SW-620 colon
[46] = system: HCC-2998 colon
[47] = system: MOLT-4 leukemia
[48] = system: SK-MEL-5 melanoma
[49] = system: DU-145 prostate
[50] = system: UACC-62 melanoma
[51] = system: NCI/ADR-RES ovarian
[52] = system: NCI-H460 lung

SMILES: COc1cc2c3c(n(CCCNC4CCCC4)c(=O)c2cc1OC)-c1cc2c(cc1C3=O)OCO2
- GI50 [1]: 16.6 µM
- TGI [1]: 36.2 µM
- GI50 [2]: 2.38 µM
- TGI [2]: 20.9 µM
- GI50 [3]: 1.57 µM
- TGI [3]: 3.29 µM
- GI50 [4]: 3.83 µM
- TGI [4]: 15.5 µM
- GI50 [5]: 1.49 µM
- TGI [5]: 2.84 µM
- GI50 [6]: 0.673 µM
- TGI [6]: 2.32 µM
- GI50 [7]: 0.133 µM
- TGI [7]: 0.583 µM
- GI50 [8]: 7.46 µM
- TGI [8]: 25.8 µM
- GI50 [9]: 11 µM
- TGI [9]: 25.2 µM
- GI50 [10]: 1.2 µM
- TGI [10]: 2.67 µM
- GI50 [11]: 1.24 µM
- TGI [11]: 2.5 µM
- GI50 [12]: 2.96 µM
- TGI [12]: 25.5 µM
- GI50 [13]: 1.91 µM
- TGI [13]: 3.99 µM
- GI50 [14]: 17.8 µM
- TGI [14]: 42 µM
- GI50 [15]: 1.59 µM
- TGI [15]: 3.43 µM
- GI50 [16]: 5.26 µM
- TGI [16]: 32 µM
- GI50 [17]: 1.8 µM
- TGI [17]: 4.3 µM
- GI50 [18]: 15.8 µM
- TGI [18]: 30.3 µM
- GI50 [19]: 19.9 µM
- TGI [19]: 81 µM
- GI50 [20]: 1.66 µM
- TGI [20]: 4.21 µM
- GI50 [21]: 12.7 µM
- TGI [21]: 26.4 µM
- GI50 [22]: 1.64 µM
- TGI [22]: 3.31 µM
- GI50 [23]: 13.8 µM
- TGI [23]: 27.3 µM
- GI50 [24]: 1.45 µM
- TGI [24]: 2.98 µM
- GI50 [25]: 1.02 µM
- TGI [25]: 2.66 µM
- GI50 [26]: 1.27 µM
- TGI [26]: 2.57 µM
- GI50 [27]: 13.8 µM
- TGI [27]: 27.3 µM
- GI50 [28]: 0.628 µM
- TGI [28]: 21.7 µM
- GI50 [29]: 1.61 µM
- TGI [29]: 3.24 µM
- GI50 [30]: 10.3 µM
- TGI [30]: 31.9 µM
- GI50 [31]: 1.03 µM
- TGI [31]: 2.33 µM
- GI50 [32]: 1.65 µM
- TGI [32]: 3.19 µM
- GI50 [33]: 1.69 µM
- TGI [33]: 3.27 µM
- GI50 [34]: 15.9 µM
- TGI [34]: 29.7 µM
- GI50 [35]: 1.35 µM
- TGI [35]: 15.4 µM
- GI50 [36]: 2.46 µM
- TGI [36]: 5.56 µM
- GI50 [37]: 1.51 µM
- TGI [37]: 2.98 µM
- GI50 [38]: 22 µM
- TGI [38]: 36.8 µM
- GI50 [39]: 1.48 µM
- TGI [39]: 2.9 µM
- GI50 [40]: 12.5 µM
- TGI [40]: 26.1 µM
- GI50 [41]: 1.4 µM
- TGI [41]: 3.65 µM
- GI50 [42]: 19 µM
- TGI [42]: 35.6 µM
- GI50 [43]: 15.8 µM
- TGI [43]: 30.6 µM
- GI50 [44]: 4.64 µM
- TGI [44]: 17 µM
- GI50 [45]: 1.09 µM
- TGI [45]: 2.44 µM
- GI50 [46]: 3.45 µM
- TGI [46]: 15.7 µM
- GI50 [47]: 0.0486 µM
- TGI [47]: 3.37 µM
- GI50 [48]: 17.3 µM
- TGI [48]: 31.2 µM
- GI50 [49]: 1.44 µM
- TGI [49]: 2.82 µM
- GI50 [50]: 13 µM
- TGI [50]: 30.2 µM
- GI50 [51]: 2.25 µM
- TGI [51]: 15.7 µM
- GI50 [52]: 0.446 µM
- TGI [52]: 1.98 µM

— PubChem BioAssay (NCI)
